Source: US8703483B2, “Reagents and methods for using human embryonic stem cells to evaluate toxicity of pharmaceutical compounds and other chemicals” (Wisconsin Alumni Research Foundation, priority 2006, dated 2014)

Tests used:
[1] = system: undifferentiated human embryonic stem cells (H1 and H9 hESC); assay: Metabolite profiling (LC/ESI-TOF-MS) of supernatant of hESCs treated with valproate; type: cell-based
Experimental: Masses were binned together if they were within 10 ppm and eluted within a 2 minutes retention time window. […] Binning of the data is required for statistical analysis and comparison of masses across the entire experiment. If multiple peaks with the same mass at the same retention time within a single sample were detected by Mass Hunter, they were averaged to assist data analysis.
As used herein, a mass was considered to be the same across LC/ESI-TOF-MS runs using a simple algorithm that first sorts the data by mass and retention time. […] If a series of measurements fit this definition it was considered to be from the same compound. If either the mass or the retention time varied by more than the limits listed above it was considered to be a different compound and given a new unique designation.

[2] = system: H1/NIH code WA01 hES cells; assay: Quantitative real-time PCR of epigenetic regulators and developmental genes in VPA-treated hESCs; type: cell-based, human; details: 1 mM VPA treated
Experimental: Treated and control H1/NIH code WA01 hES cells (passage 41) were analyzed by real-time PCR, and each treatment group was paired with a corresponding control group that received the standard growth media combination of CM+bFGF without VPA. In these studies, total cellular RNA was extracted from cells harvested at 24 hours (24 H), 4 days (4 D) and 8 days (EC) using the RNA Easy Kit (Qiagen, Valencia, Calif.) according to the manufacturer's instructions.
Expression levels of candidate test genes and a housekeeping gene (Beta-2-microglobulin) were evaluated by quantitative real-time PCR using a DNA Engine-Opticon 2 Detection System (MJ Research, Watertown, Mass.). The housekeeping gene acts as an internal control for normalization of RNA levels. The primers used for real-time PCR reactions were designed using Beacon Designer software (Premier Biosoft International, Palo Alto, Calif.). RNA was reverse transcribed using iScript cDNA Synthesis kit (Bio-Rad, Hercules, Calif.), wherein each cDNA synthesis reaction (20 μL) included 4 μL of 5× iScript reaction mix, 1 μL of iScript reverse transcriptase, and 2 μL of RNA. PCR was performed on cDNA in PCR reaction mixtures (25 μL) each containing 12.5 μL of Supermix (contains dNTPs, Taq DNA polymerase, SYBR Green I, and fluorescein), 250 nM forward primer, 250 nM reverse primer, and 1.6 μL RT-PCR products. Melting curve analysis and agarose gel electrophoresis were performed after real-time PCR reaction to monitor PCR specificity, wherein PCR products were detected with SYBR Green I using the iQ SYBR Green Supermix kit (Bio-Rad).
Quantifying the relative expression of real-time PCR was performed using the 2-ΔΔCt method (Livak & Schmittgen, 2001, Methods 25:402-8), and a general linear model was employed to fit the expression data. The PROC GLM procedure in SAS (version 8.2; SAS Institute, Cary, N.C.) was used to estimate least squares means in expression between treated and untreated hESCs and P<0.05 was considered statistically significant
Real-time PCR was conducted on samples from 24 hours (24 H), 4 days (4 D) and 8 days (EC) after VPA treatment to investigate expression levels of epigenetic regulators (such as DNA methyltransferase-1, DNMT-1, BMI-1, EED) and critical transcription factors responsible for embryonic patterning and neurodevelopment (RUNX2, BMP7, FGF8, CBX2, GLI3, SSH and SP8) in human embryonic stem cells.

[3] = system: neuronal precursors derived from hESCs; assay: Metabolite profiling of neural precursors derived from hESCs treated with valproate; type: cell-based, human; details: 1 mM valproate
Excerpt: Metabolomic assessment of teratogens on embryonic development is not limited exclusively to hESCs.

[4] = system: human embryonic stem cells; assay: Viability and pluripotency (Oct-4, morphology) of hESCs after valproate exposure; type: cell-based; details: hESCs remained viable for multiple passages following exposure
[5] = supplementation prior to pregnancy; cited from earlier work
[6] = system: human embryonic stem cells; assay: Metabolite profiling (LC/ESI-TOF mass spectrometry) of extracellular media of hESCs treated with alcohol; type: cell-based; details: for Putative kynurenine (exact neutral mass 208.0816) upregulation: day four
Excerpt: Binned masses were annotated in silico by querying the neutral masses in several different databases. These databases included Metlin, Biological Magnetic Resonance Data Bank (BMRB), NIST Chemistry WebBook, and the Human Metabolome Database. A mass was considered identified when its neutral mass was within 10 ppm of a known compound annotated in one of the databases listed above.

[7] = 0.3% alcohol, four days, p<0.05

## CCCC(CCC)C(=O)O [valproate]
[1]; 22 μM valproate, of 3,241 mass signals (3%)
  Compounds with statistically-significant differences in at least one time point: 110 compounds
[1]; VPA, 24 hours, vs untreated controls
  Small molecules absent in treated groups: approximately 40
[2]; 4 D
  BMI-1 gene expression level (target gene/Beta-2-Microglobulin): 0.112
  BMP7 gene expression level (target gene/Beta-2-Microglobulin): 0.342
  CBX2 gene expression level (target gene/Beta-2-Microglobulin): 1.1881
  DNMT1 gene expression level (target gene/Beta-2-Microglobulin): 0.002
  EED gene expression level (target gene/Beta-2-Microglobulin): 0.185
  GLI3 gene expression level (target gene/Beta-2-Microglobulin): 0.774
  H19 gene expression level (target gene/Beta-2-Microglobulin): 0.846
  RUNX2 gene expression level (target gene/Beta-2-Microglobulin): 4.020
  SP8 gene expression level (target gene/Beta-2-Microglobulin): 1.703
  Shh gene expression level (target gene/Beta-2-Microglobulin): 0.533
[2]; 24 H
  BMI-1 gene expression level (target gene/Beta-2-Microglobulin): 0.252
  BMP7 gene expression level (target gene/Beta-2-Microglobulin): 0.093
  CBX2 gene expression level (target gene/Beta-2-Microglobulin): 0.245
  DNMT1 gene expression level (target gene/Beta-2-Microglobulin): 0.624
  EED gene expression level (target gene/Beta-2-Microglobulin): 0.342
  FGF8 gene expression level (target gene/Beta-2-Microglobulin): 0.801
  GLI3 gene expression level (target gene/Beta-2-Microglobulin): 0.015
  H19 gene expression level (target gene/Beta-2-Microglobulin): 0.006
  RUNX2 gene expression level (target gene/Beta-2-Microglobulin): 1.769
  SP8 gene expression level (target gene/Beta-2-Microglobulin): 0.235
  Shh gene expression level (target gene/Beta-2-Microglobulin): 0.562
[2]; EC (8 days)
  BMI-1 gene expression level (target gene/Beta-2-Microglobulin): 1.071
  BMP7 gene expression level (target gene/Beta-2-Microglobulin): 1.664
  CBX2 gene expression level (target gene/Beta-2-Microglobulin): 1.946
  DNMT1 gene expression level (target gene/Beta-2-Microglobulin): 1.124
  EED gene expression level (target gene/Beta-2-Microglobulin): 1.769
  FGF8 gene expression level (target gene/Beta-2-Microglobulin): 0.837
  GLI3 gene expression level (target gene/Beta-2-Microglobulin): 1.918
  H19 gene expression level (target gene/Beta-2-Microglobulin): 2.756
  RUNX2 gene expression level (target gene/Beta-2-Microglobulin): 2.434
  SP8 gene expression level (target gene/Beta-2-Microglobulin): 5.808
[3]
  Compounds differentially secreted in treated neuronal precursors versus control: Approximately 135 compounds
[4]
  Effect of treatment on hESC viability: not detrimental

## Nc1nc2ncc(CNc3ccc(C(=O)N[C@@H](CCC(=O)O)C(=O)O)cc3)nc2c(=O)[nH]1 [Folic acid]
[5]
  Reduction of the incidence of spina bifida: 70%

## CCO [ethanol, reference compound]
[6]; 0.1% alcohol, four days, p<0.05
  8-methoxykynurenate (219.0532) change: upregulated
[6]; 0.1% treatment, p=0.001
  Putative kynurenine (exact neutral mass 208.0816) upregulation: three-fold
[6]; 0.1 and 0.3% ethanol, of 49,481 mass signals
  Compounds significantly different (p<0.05) in at least one treatment: 1,860 compounds
[6]; [7]
  5-hydroxy-L-tryptophan (220.0848) change in comparison to untreated controls: significant downregulation
  8-methoxykynurenate (219.0532) change: upregulated
[6]; 0.3% treatment, p=0.002
  Putative kynurenine (exact neutral mass 208.0816) upregulation: three-fold
